Data as given in ChEMBL document CHEMBL1201862, “PubChem BioAssay data set” (2004).
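How tested: cells in 96-well plates exposed to compound for 48 hours at five concentrations. GI50 marks 50% less growth.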 Active and inactive are the calls of the source. Cut-off read from the data, not from the text of the source: active = GI50 up to about 1.1 µM and inactive = higher.

Key:
Assay in all cases: growth of human tumour cells (NCI), 48 h
HT-29 = system: HT-29
KM12 = system: KM12
RPMI-8226 = system: RPMI-8226
A498 = system: A498
HL-60 = system: HL-60
DMS-114 = system: DMS-114
UO-31 = system: UO-31
786-0 = system: 786-0
KM-20L2 = system: KM-20L2
SK-OV-3 = system: SK-OV-3
SNB-78 = system: SNB-78
EKVX = system: EKVX
OVCAR-5 = system: OVCAR-5
OVCAR-4 = system: OVCAR-4
OVCAR-3 = system: OVCAR-3
SK-MEL-28 = system: SK-MEL-28
HOP-18 = system: HOP-18
OVCAR-8 = system: OVCAR-8
NCI-H460 = system: NCI-H460
SR = system: SR
SNB-75 = system: SNB-75
COLO 205 = system: COLO 205
NCI-H522 = system: NCI-H522
HOP-92 = system: HOP-92
CCRF-CEM = system: CCRF-CEM
ACHN = system: ACHN
MOLT-4 = system: MOLT-4
SF-539 = system: SF-539
HCT-116 = system: HCT-116
DMS-273 = system: DMS-273
SNB-19 = system: SNB-19
UACC-257 = system: UACC-257
CAKI-1 = system: CAKI-1
SF-295 = system: SF-295
K562 = system: K562
A549 = system: A549
HCT-15 = system: HCT-15
UACC-62 = system: UACC-62
DLD-1 = system: DLD-1
LXFL 529 = system: LXFL 529
HCC 2998 = system: HCC 2998
SF-268 = system: SF-268
SK-MEL-5 = system: SK-MEL-5
XF498 = system: XF498
M14 = system: M14
NCI-H226 = system: NCI-H226
HOP-62 = system: HOP-62
M19-MEL = system: M19-MEL
NCI-H23 = system: NCI-H23
TK-10 = system: TK-10
Malme-3M = system: Malme-3M
SW-620 = system: SW-620
SN12C = system: SN12C
IGROV-1 = system: IGROV-1
SK-MEL-2 = system: SK-MEL-2
U-251 = system: U-251
NCI/ADR-RES = system: NCI/ADR-RES
RXF 393 = system: RXF 393
MCF7 = system: MCF7
LOX IMVI = system: LOX IMVI

Cc1ccc(-c2nnc(SCC(=O)O)[nH]2)cc1
GI50 (HT-29): > 100 µM (inactive)
GI50 (KM12): > 100 µM (inactive)
GI50 (RPMI-8226): > 100 µM (inactive)
GI50 (A498): > 100 µM (inactive)
GI50 (HL-60): > 100 µM (inactive)
GI50 (DMS-114): > 100 µM (inactive)
GI50 (UO-31): > 100 µM (inactive)
GI50 (786-0): > 100 µM (inactive)
GI50 (KM-20L2): > 100 µM (inactive)
GI50 (SK-OV-3): > 100 µM (inactive)
GI50 (SNB-78): > 100 µM (inactive)
GI50 (EKVX): > 100 µM (inactive)
GI50 (OVCAR-5): > 100 µM (inactive)
GI50 (OVCAR-4): > 100 µM (inactive)
GI50 (OVCAR-3): > 100 µM (inactive)
GI50 (SK-MEL-28): > 100 µM (inactive)
GI50 (HOP-18): > 100 µM (inactive)
GI50 (OVCAR-8): > 100 µM (inactive)
GI50 (NCI-H460): > 100 µM (inactive)
GI50 (SR): > 100 µM (inactive)
GI50 (SNB-75): 78.5 µM (inactive)
GI50 (COLO 205): > 100 µM (inactive)
GI50 (NCI-H522): > 100 µM (inactive)
GI50 (HOP-92): > 100 µM (inactive)
GI50 (CCRF-CEM): > 100 µM (inactive)
GI50 (ACHN): > 100 µM (inactive)
GI50 (MOLT-4): > 100 µM (inactive)
GI50 (SF-539): > 100 µM (inactive)
GI50 (HCT-116): > 100 µM (inactive)
GI50 (DMS-273): > 100 µM (inactive)
GI50 (SNB-19): > 100 µM (inactive)
GI50 (UACC-257): > 100 µM (inactive)
GI50 (CAKI-1): > 100 µM (inactive)
GI50 (SF-295): > 100 µM (inactive)
GI50 (K562): > 100 µM (inactive)
GI50 (A549): > 100 µM (inactive)
GI50 (HCT-15): > 100 µM
GI50 (UACC-62): > 100 µM (inactive)
GI50 (DLD-1): > 100 µM (inactive)
GI50 (LXFL 529): > 100 µM (inactive)
GI50 (HCC 2998): > 100 µM (inactive)
GI50 (SF-268): > 100 µM (inactive)
GI50 (SK-MEL-5): > 100 µM (inactive)
GI50 (XF498): > 100 µM (inactive)
GI50 (M14): > 100 µM (inactive)
GI50 (NCI-H226): > 100 µM (inactive)
GI50 (HOP-62): > 100 µM (inactive)
GI50 (M19-MEL): > 100 µM (inactive)
GI50 (NCI-H23): > 100 µM (inactive)
GI50 (TK-10): > 100 µM (inactive)
GI50 (Malme-3M): > 100 µM (inactive)
GI50 (SW-620): > 100 µM (inactive)
GI50 (SN12C): > 100 µM (inactive)
GI50 (IGROV-1): > 100 µM (inactive)
GI50 (SK-MEL-2): > 100 µM (inactive)
GI50 (U-251): > 100 µM (inactive)

O=C(O)/C=C/C(=O)N1C/C(=C\c2ccccc2)C(=O)/C(=C/c2ccccc2)C1
GI50 (HT-29): 7.76 µM (inactive)
GI50 (KM12): 2.55 µM (inactive)
GI50 (RPMI-8226): 1.78 µM (inactive)
GI50 (A498): 20.1 µM (inactive)
GI50 (HL-60): 7.96 µM (inactive)
GI50 (DMS-114): 2.99 µM (inactive)
GI50 (UO-31): 18.2 µM (inactive)
GI50 (786-0): 3.3 µM (inactive)
GI50 (KM-20L2): 5.9 µM (inactive)
GI50 (SK-OV-3): 21.3 µM (inactive)
GI50 (SNB-78): 5.9 µM (inactive)
GI50 (NCI/ADR-RES): 8.65 µM (inactive)
GI50 (EKVX): 23.5 µM (inactive)
GI50 (RXF 393): 5.05 µM (inactive)
GI50 (OVCAR-5): 17.9 µM (inactive)
GI50 (OVCAR-4): 7.43 µM (inactive)
GI50 (OVCAR-3): 7.26 µM (inactive)
GI50 (SK-MEL-28): 6.49 µM (inactive)
GI50 (HOP-18): 11.9 µM (inactive)
GI50 (OVCAR-8): 2.7 µM (inactive)
GI50 (NCI-H460): 14.1 µM (inactive)
GI50 (SR): 3.72 µM (inactive)
GI50 (SNB-75): 9.84 µM (inactive)
GI50 (COLO 205): 10.2 µM (inactive)
GI50 (NCI-H522): 1.9 µM (inactive)
GI50 (HOP-92): 19.9 µM (inactive)
GI50 (CCRF-CEM): 2.36 µM (inactive)
GI50 (MCF7): 4.73 µM (inactive)
GI50 (ACHN): 8.13 µM (inactive)
GI50 (MOLT-4): 2.81 µM (inactive)
GI50 (SF-539): 10.8 µM (inactive)
GI50 (HCT-116): 1.82 µM (inactive)
GI50 (DMS-273): 8.53 µM (inactive)
GI50 (SNB-19): 11.3 µM (inactive)
GI50 (UACC-257): 7.18 µM (inactive)
GI50 (CAKI-1): 15.1 µM (inactive)
GI50 (SF-295): 5.01 µM (inactive)
GI50 (K562): 2.37 µM (inactive)
GI50 (A549): 21.4 µM (inactive)
GI50 (HCT-15): 6.73 µM
GI50 (UACC-62): 2.97 µM (inactive)
GI50 (DLD-1): 3.94 µM (inactive)
GI50 (LXFL 529): 1.8 µM (inactive)
GI50 (HCC 2998): 6.67 µM (inactive)
GI50 (SF-268): 6.35 µM (inactive)
GI50 (SK-MEL-5): 8.95 µM (inactive)
GI50 (XF498): 7.18 µM (inactive)
GI50 (M14): 3.4 µM (inactive)
GI50 (NCI-H226): 12.4 µM (inactive)
GI50 (LOX IMVI): 3.13 µM (inactive)
GI50 (HOP-62): 23.4 µM (inactive)
GI50 (M19-MEL): 3.21 µM (inactive)
GI50 (NCI-H23): 9.71 µM (inactive)
GI50 (TK-10): 10.3 µM (inactive)
GI50 (Malme-3M): 4.72 µM (inactive)
GI50 (SW-620): 2.32 µM (inactive)
GI50 (SN12C): 6.81 µM (inactive)
GI50 (IGROV-1): 16.7 µM (inactive)
GI50 (SK-MEL-2): 12.6 µM (inactive)
GI50 (U-251): 1.87 µM (inactive)

CCOC(=O)C(=O)Nc1ccc(Cl)cc1C
GI50 (HT-29): > 100 µM (inactive)
GI50 (KM12): > 100 µM (inactive)
GI50 (RPMI-8226): > 100 µM (inactive)
GI50 (HL-60): > 100 µM (inactive)
GI50 (DMS-114): > 100 µM (inactive)
GI50 (UO-31): > 100 µM (inactive)
GI50 (786-0): > 100 µM (inactive)
GI50 (KM-20L2): > 100 µM (inactive)
GI50 (SK-OV-3): > 100 µM (inactive)
GI50 (SNB-78): > 100 µM (inactive)
GI50 (EKVX): > 100 µM (inactive)
GI50 (RXF 393): > 100 µM (inactive)
GI50 (OVCAR-5): > 100 µM (inactive)
GI50 (OVCAR-4): > 100 µM (inactive)
GI50 (OVCAR-3): > 100 µM (inactive)
GI50 (SK-MEL-28): > 100 µM (inactive)
GI50 (HOP-18): > 100 µM (inactive)
GI50 (OVCAR-8): > 100 µM (inactive)
GI50 (NCI-H460): > 100 µM (inactive)
GI50 (SR): > 100 µM (inactive)
GI50 (SNB-75): > 100 µM (inactive)
GI50 (COLO 205): > 100 µM (inactive)
GI50 (NCI-H522): > 100 µM (inactive)
GI50 (HOP-92): > 100 µM (inactive)
GI50 (CCRF-CEM): > 100 µM (inactive)
GI50 (ACHN): > 100 µM (inactive)
GI50 (MOLT-4): > 100 µM (inactive)
GI50 (SF-539): > 100 µM (inactive)
GI50 (HCT-116): > 100 µM (inactive)
GI50 (DMS-273): > 100 µM (inactive)
GI50 (SNB-19): > 100 µM (inactive)
GI50 (UACC-257): > 100 µM (inactive)
GI50 (CAKI-1): > 100 µM (inactive)
GI50 (SF-295): > 100 µM (inactive)
GI50 (K562): > 100 µM (inactive)
GI50 (A549): > 100 µM (inactive)
GI50 (HCT-15): > 100 µM
GI50 (UACC-62): > 100 µM (inactive)
GI50 (DLD-1): > 100 µM (inactive)
GI50 (LXFL 529): > 100 µM (inactive)
GI50 (HCC 2998): > 100 µM (inactive)
GI50 (SF-268): > 100 µM (inactive)
GI50 (SK-MEL-5): > 100 µM (inactive)
GI50 (XF498): > 100 µM (inactive)
GI50 (M14): > 100 µM (inactive)
GI50 (NCI-H226): > 100 µM (inactive)
GI50 (LOX IMVI): > 100 µM (inactive)
GI50 (HOP-62): > 100 µM (inactive)
GI50 (M19-MEL): > 100 µM (inactive)
GI50 (NCI-H23): > 100 µM (inactive)
GI50 (TK-10): > 100 µM (inactive)
GI50 (Malme-3M): > 100 µM (inactive)
GI50 (SW-620): > 100 µM (inactive)
GI50 (SN12C): > 100 µM (inactive)
GI50 (IGROV-1): > 100 µM (inactive)
GI50 (SK-MEL-2): > 100 µM (inactive)
GI50 (U-251): > 100 µM (inactive)
